Measurements reported in US11234920B2, “Manufacturing method of an ascorbic acid dispersion material” (priority 2015, dated 2022).

Experiment: Observation of the crystals using a scanning electron microscope; measurement of the crystal thickness
Assay type: physicochemical
Conditions: scanning electron microscope image
Procedure: The ascorbic acid crystals contained in the ascorbic acid dispersion material of the present invention obtained in Examples 1 to 3 were observed using a scanning electron microscope. 3. 5 mL of the ascorbic acid dispersion material of the present invention obtained in Examples 1 to 3 as an analyte and 0.5 g of commercially available ascorbic acid crystal powder were both infused into 20 mL of the dispersion medium prepared in 2, lightly shaken, and mixed. 6. The operations of 4 and 5 were further carried out to remove the solvent component of the ascorbic acid dispersion material of the present invention, following which the operation of 4 was further carried out to precipitate particles of the ascorbic acid, and remove the supernatant, and the particles were dried at a low temperature to obtain particulate powder. […]

Crystal shape: indeterminate crystal shape
SMILES: O=C1O[C@H]([C@@H](O)CO)C(O)=C1O [ascorbic acid crystal powder, ascorbic acid]
